According to patent US5166214A, “Use of imidazoles for the treatment of atherosclerosis” (priority 1990, dated 1992):

Columns and labels:
[1] = tested on: murine macrophage-like cell line J774.A1; experiment: Inhibition of cholesterol esterification in mammalian cells (macrophage assay); assay type: cell-based; settings: J774.A1 macrophages loaded with ac-LDL, 14C-oleic acid; read-out: Cholesterol Esterification IC50
Procedure: B. Assay of the Inhibition of Cholesterol Esterification in Mammalian Cells
The esterification of cholesterol was determined in the murine macrophage-like cell line J774.A1. Cells were seeded in 35 mm wells at a density of 300,000 cells per well in 2 mls of Dulbecco's Eagle Medium (DMEM) supplemented with 10% fetal bovine serum (FBS). Cells were incubated at 37° C. in an atmosphere of 5% CO2 and 93% humidity. After 24 hours the media was changed to 0.68 mls 10% FBS-DMEM containing 34 μg of acetylated human low density lipoprotein (ac-LDL) to increase the intracellular concentration of cholesterol and promote esterification. At 41 hours, various inhibitors were added to the cells in DMSO (10 μl/ml maximum). At 43 hours, the cells were pulsed with 0.1 mM ^14 C-oleic acid (10,000 dpm/nmol) complexed with BSA (bovine serum albumin) to follow cholesterol ester formation. The experiment was terminated at 45 hours by washing the monolayers 3 times with 3 ml of Tris-buffered saline at 4° C. The lipids were extracted by incubating the monolayers with 1.5 ml of hexane:isopropanol (3:2, v/v) for 30 min. under gentle agitation. During this period, 10,000 dpm 3H-cholesteryl linoleate and 10 μg of cholesteryl oleate were added as an internal standard and carrier respectively. The organic solvent was removed and the cells were washed with an additional 1.0 ml of hexane: isopropanol which was combined with the original extract. The cells were allowed to dry overnight, digested with 1.5 ml of 0.2N sodium hydroxide for 1 hour and an aliquot of the solubilized protein used for protein determination using the Lowry method. The organic extract was taken to dryness, the residue resuspended in 100 μl of chloroform and the lipids separated on silica gel impregnated glass fiber plates using a hexane:diethylether:acetic acid (170:30:1, v/v/v) solvent system. Individual lipids were visualized with iodine and the cholesteryl ester spot cut out and transferred to scintillation vials to determine the amount of radioactivity. The conversion of oleic acid to cholesteryl ester in the control averaged 0.54 […] and was increased upon the addition of ac-LDL to about 10.69±0.69 […]. […] It should be noted that many of the intermediates had inhibitory activity in the in vitro ACAT assay and in the macrophage assay.

[2] = biological target: T1, Acyl-CoA: Cholesterol Acyltransferase (ACAT) (Rattus norvegicus, UniProt Q7TQM4); experiment: Inhibition of acyl-CoA: cholesterol acyltransferase (ACAT) in hepatic microsomes (in vitro); assay type: biochemical, rat (male Sprague Dawley); settings: rat hepatic microsomes, 75 μM 14C-oleoyl-CoA, pH 7.4, 37° C.; read-out: In Vitro ACAT IC50
T1 construct: Microsomes were obtained by differential centrifugation; from tissue; host or cells: liver microsomes of male Sprague Dawley rats
T1 sequence (Q7TQM4 1-524): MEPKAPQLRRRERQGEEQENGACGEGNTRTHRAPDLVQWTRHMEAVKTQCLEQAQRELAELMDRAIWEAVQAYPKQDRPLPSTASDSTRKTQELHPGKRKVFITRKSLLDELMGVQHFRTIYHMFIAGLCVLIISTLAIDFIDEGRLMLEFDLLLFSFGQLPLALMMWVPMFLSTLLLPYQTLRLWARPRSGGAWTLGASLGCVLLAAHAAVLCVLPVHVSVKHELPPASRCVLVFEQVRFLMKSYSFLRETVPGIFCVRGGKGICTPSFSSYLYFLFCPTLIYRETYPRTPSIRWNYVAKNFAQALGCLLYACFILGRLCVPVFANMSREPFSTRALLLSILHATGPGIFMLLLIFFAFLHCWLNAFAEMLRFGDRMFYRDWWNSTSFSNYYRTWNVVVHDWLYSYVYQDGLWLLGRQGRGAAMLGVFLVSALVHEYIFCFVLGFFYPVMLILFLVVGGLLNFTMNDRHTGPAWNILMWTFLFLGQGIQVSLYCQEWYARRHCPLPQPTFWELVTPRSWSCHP
Procedure: A. Assay of the Inhibition of Acyl-CoA: Cholesterol Acyltransferase (ACAT) in Hepatic Microsomes
The ability of the compounds to inhibit ACAT, the enzyme responsible for the intracellular synthesis of cholesteryl esters, was tested as follows. Male Sprague Dawley rats weighing 150-300 g, were fed rat chow ad libitum. The animals were fasted for twenty-four hours prior to being sacrificed by decapitation. The livers were perfused in situ with 50 ml of cold 0.25M sucrose, excised, and homogenized in three volumes of 0.1M phosphate buffer, pH 7.4, that contained 0.5 mM EDTA (ethylenediaminetetraacetic acid), 1.0 mM glutathione, 0.25M sucrose and […]. Microsomes were obtained by differential centrifugation; the supernatant from an initial spin at 15,000×g for 15 minutes was centrifuged at 105,000×g for 1 hour to pellet the microsomes. The microsomes were suspended in homogenization buffer, reisolated by centrifugation, and stored at -70° C. Microsomes were used within one month of preparation.
The control assay in a final volume of 200 μl consisted of 200 μg of microsomal protein, 75 μM ^14 C-oleoyl-CoA (10,000 dpm/nmol) in 0.1M phosphate, pH 7.4, that contained 1 mM glutathione. Compounds were added in 5 μl of DMSO (dimethyl sulfoxide) and additional controls were run with DMSO only. All components, except the oleoyl-CoA, were preincubated for 15 min. at 37° C. prior to the initiation of the reaction by the addition of oleoyl-CoA. The assay was terminated after 10 min by the addition of 4 ml of chloroform:methanol (2:1, v/v). 20,000 dpm of ^3 H-cholesteryl oleate and 10 μg of unlabeled cholesteryl oleate and oleic acid were added as an internal standard and carriers, respectively. After allowing 10 min. for lipid extraction, the samples were centrifuged at 1,000×g for 10 min. to separate the solvent layers. The chloroform layer containing the neutral lipids was spotted onto a Baker SI250-Pa silica gel TLC plate and the plate developed using a hexane: diethyl ether: acetic acid (170:30:1 v/v/v) mobile phase. The lipids were visualized by their interaction with iodine vapor and the cholesteryl ester spot was scraped into a scintillation vial and counted.

Work on CCCCCCCN(CCCCCSc1nc(-c2ccccc2OC)c(-c2ccccc2OC)[nH]1)C(=O)Nc1ccc(F)cc1F [Example 196, N-[5-[4,5-bis(2-methoxyphenyl)-1H-imidazol-2-ylthio]pentyl]-N'-(2,4-difluorophenyl)-N-heptylurea] yielded an IC50 [1] of 1400 nM and an IC50 [2] of 300 nM.
Work on CCCCCCCN(CCCCCSc1nc(-c2ccc(N(C)C)cc2)c(-c2ccc(N(C)C)cc2)[nH]1)C(=O)Nc1ccc(F)cc1F [Example 197, N-[5-[4,5-bis[4-(dimethylamino)phenyl]-1H-imidazol-2-ylthio]pentyl]-N'-(2,4-difluorophenyl)-N-heptylurea] yielded an IC50 [1] of 100 nM and an IC50 [2] of 119 nM.
CCCCCCCN(CCCCCSc1nc(-c2ccc(N(C)C)cc2)c(-c2ccc(N(C)C)cc2)[nH]1)C(=O)Nc1ccc(F)cc1F [Example 198] gave an IC50 [1] of 60 nM and an IC50 [2] of 40 nM.
With CCCCCCCN(CCCCCSc1nc(C2CCCCC2)c(C2CCCCC2)[nH]1)C(=O)Nc1ccc(F)cc1F [Example 199, N-[5-(4,5-dicyclohexyl-1H-imidazol-2-ylthio)pentyl]-N'-(2,4-difluorophenyl)-N-heptylurea] the IC50 [1] was 600 nM and the IC50 [2] was 20 nM.
With CCCCCCCN(CCCCCSc1nc(-c2ccccc2)c(-c2ccc(N(C)C)cc2)[nH]1)C(=O)Nc1ccc(F)cc1F [Example 200] the IC50 [1] was 800 nM and the IC50 [2] was 710 nM.
Work on CCCCCCCN(CCCCCSc1nc(-c2ccco2)c(-c2ccco2)[nH]1)C(=O)Nc1ccc(F)cc1F [Example 201] yielded an IC50 [1] of 500 nM and an IC50 [2] of 200 nM.
CCCCCCCN(CCCCCSc1nc(-c2ccc(OC)cc2)c(-c2ccc(OC)cc2)[nH]1)C(=O)NC(C)C [Example 202, N-[5-[4,5-bis(4-methoxyphenyl)-1H-imidazol-2-ylthio]pentyl]-N-heptyl-N'-(1-methylethyl)urea] showed an IC50 [1] of 4 nM and an IC50 [2] of 220 nM.
COc1ccc(-c2nc(SCCCCCN(C)C(=O)Nc3ccc(F)cc3F)[nH]c2-c2ccc(OC)cc2)cc1 [Example 204] showed an IC50 [1] of 400 nM and an IC50 [2] of 500 nM.
Molecule CCCCCCCN(CCCCCSc1nc(-c2ccc(N(C)C)cc2)c(-c2ccc(N(C)C)cc2)[nH]1)C(=O)NC(C)C [Example 205, N-[5-[4,5-bis[4-(dimethylamino)phenyl]-1H-imidazol-2-ylthio]pentyl]-N-heptyl-N'-(1-methylethyl)urea] has an IC50 [1] of 3 nM and an IC50 [2] of 74 nM.
In the case of CCCCCCCCNC(=O)N(CCCCCSc1nc(-c2ccccc2)c(-c2ccccc2)[nH]1)c1ccccc1 [Example 207, N-[5-(4,5-diphenyl-1H-imidazol-2-ylthio)pentyl]-N'-octyl-N-phenylurea], the IC50 [1] is reported as 600 nM and the IC50 [2] is reported as 9 nM.
Work on CCCCCCCN(CCCCCSc1nc(-c2ccc(O)cc2)c(-c2ccc(O)cc2)[nH]1)C(=O)Nc1ccc(F)cc1F [Example 209, N-[5-[4,5-bis(4-hydroxyphenyl)-1H-imidazol-2-ylthio]pentyl]-N'-(2,4-difluorophenyl)-N-heptylurea] yielded an IC50 [1] of 4800 nM and an IC50 [2] of 1400 nM.
CCCCCCCN(CCCCCSc1nc(C(C)C)c(C(C)C)[nH]1)C(=O)NC(C)C [Example 210] showed an IC50 [1] of 800 nM and an IC50 [2] of 17 nM.
CCCCCCCN(CCCCCSc1nc2c([nH]1)-c1ccccc1OCOc1ccccc1-2)C(=O)Nc1ccc(F)cc1F [Example 211, N-[5-(1H,9H-dibenz[4,5:8,9][1,3]dioxonino[6,7-d]imidazol-2-ylthio)-pentyl]-N'-(2,4-difluorophenyl)-N-heptylurea] showed an IC50 [1] of 700 nM and an IC50 [2] of 32 nM.
Work on CCCCCCCN(CCCCCSc1nc2c([nH]1)-c1ccccc1Oc1ccccc1-2)C(=O)Nc1ccc(F)cc1F [Example 212, N-[5-(1H-dibenz[2,3:6,7]oxedino[4,5-d]imidazol-2-ylthio)pentyl]-N'-(2,4-difluorophenyl)-N-heptylurea] yielded an IC50 [1] of 1700 nM and an IC50 [2] of 60 nM.
Molecule CCCCCCCN(CCCCCSc1nc(-c2ccc(C(F)(F)F)cc2)c(-c2ccc(C(F)(F)F)cc2)[nH]1)C(=O)Nc1ccc(F)cc1F [Example 258] has an IC50 [1] of 25000 nM and an IC50 [2] of 40000 nM.
Work on CCCCCCCN(CCCCCSc1nc(-c2ccccc2)c(-c2ccccc2)[nH]1)C(=S)NCCC [Example 299, N-[5-(4,5-diphenyl-1H-imidazol-2-ylthio)pentyl]-N-heptyl-N'-propylthiourea] yielded an IC50 [1] of 1200 nM and an IC50 [2] of 140 nM.
Work on CCCCCCCN(CCCCCSc1nc(-c2ccccc2)c(-c2ccccc2)[nH]1)C(=S)Nc1cccc(F)c1 [Example 300, N-[5-(4,5-diphenyl-1H-imidazol-2-ylthio)pentyl]-N'-(3-fluorophenyl)-N-heptylthiourea] yielded an IC50 [1] of 900 nM and an IC50 [2] of 130 nM.
With CCCCCCCN(CCCCCSc1nc(-c2ccccc2)c(-c2ccccc2)[nH]1)C(=O)CCC [Example 341, N-[5-(4,5-diphenyl-1H-imidazol-2-ylthio)pentyl]-N-heptylbutanamide] the IC50 [1] was 100 nM and the IC50 [2] was 3 nM.
CCCCCCCN(CCCCCSc1nc(-c2ccccc2)c(-c2ccccc2)[nH]1)C(=O)CCCC [Example 342, N-[5-(4,5-diphenyl-1H-imidazol-2-ylthio)pentyl]-N-heptylpentanamide] gave an IC50 [1] of 1600 nM and an IC50 [2] of 30 nM.
For CCCCCCCN(CCCCCSc1nc(C(C)C)c(C(C)C)[nH]1)C(=O)CC1CCCCC1 [Example 347, N-[5-[4,5-bis(1-methylethyl)-1H-imidazol-2-ylthio]pentyl]-N-heptylcyclohexaneacetamide], the IC50 [1] was 300 nM and the IC50 [2] was 30 nM.
CCCCCCCN(CCCCCSc1nc(-c2ccc(OC)cc2)c(-c2ccc(OC)cc2)[nH]1)C(=O)CCC [Example 348, N-[5-[4,5-bis(4-methoxyphenyl)-1H-imidazol-2-ylthio]pentyl]-N-heptylbutanamide] was tested, and the IC50 [1] was 200 nM and the IC50 [2] was 700 nM.
CCCCCCCN(CCCCCSc1nc(-c2ccc(OC)cc2)c(-c2ccc(OC)cc2)[nH]1)C(=O)Cc1ccc(Cl)c(Cl)c1 [Example 349] showed an IC50 [1] of 90 nM and an IC50 [2] of 200 nM.
For CCCCCCCN(CCCCCSc1nc(-c2ccc(OC)cc2)c(-c2ccc(OC)cc2)[nH]1)C(=O)Cc1c(F)c(F)c(F)c(F)c1F [Example 350], the IC50 [1] was 50 nM and the IC50 [2] was 605 nM.
